Source: patent publication EP2776398B1, “SUBSTITUTED PYRAZOLYL-BASED UREA DERIVATIVES AS VANILLOID RECEPTOR LIGANDS” (Medifron DBT Inc., priority 2011, dated 2013)

Target: T1, vanilloid receptor 1 (VR1/TRPV1 receptor) (Homo sapiens, UniProt Q8NER1)
T1 construct: expressed in transfected cells; host or cells: CHO K1 cells (ECACC), stably transfected
Assay: Functional testing on vanilloid receptor 1: FLIPR Ca2+ influx assay against capsaicin (Cap) in transfected CHO K1 cells (pharmacological method II)
Assay type: cell-based
Design: key to (f) Ki (human being) [nM] Cap: agonist classification: AG = agonist
Settings: for Ki: read-out: (f) Ki (human being) [nM] Cap
Excerpt: […]

T1 sequence (Q8NER1 whole entry): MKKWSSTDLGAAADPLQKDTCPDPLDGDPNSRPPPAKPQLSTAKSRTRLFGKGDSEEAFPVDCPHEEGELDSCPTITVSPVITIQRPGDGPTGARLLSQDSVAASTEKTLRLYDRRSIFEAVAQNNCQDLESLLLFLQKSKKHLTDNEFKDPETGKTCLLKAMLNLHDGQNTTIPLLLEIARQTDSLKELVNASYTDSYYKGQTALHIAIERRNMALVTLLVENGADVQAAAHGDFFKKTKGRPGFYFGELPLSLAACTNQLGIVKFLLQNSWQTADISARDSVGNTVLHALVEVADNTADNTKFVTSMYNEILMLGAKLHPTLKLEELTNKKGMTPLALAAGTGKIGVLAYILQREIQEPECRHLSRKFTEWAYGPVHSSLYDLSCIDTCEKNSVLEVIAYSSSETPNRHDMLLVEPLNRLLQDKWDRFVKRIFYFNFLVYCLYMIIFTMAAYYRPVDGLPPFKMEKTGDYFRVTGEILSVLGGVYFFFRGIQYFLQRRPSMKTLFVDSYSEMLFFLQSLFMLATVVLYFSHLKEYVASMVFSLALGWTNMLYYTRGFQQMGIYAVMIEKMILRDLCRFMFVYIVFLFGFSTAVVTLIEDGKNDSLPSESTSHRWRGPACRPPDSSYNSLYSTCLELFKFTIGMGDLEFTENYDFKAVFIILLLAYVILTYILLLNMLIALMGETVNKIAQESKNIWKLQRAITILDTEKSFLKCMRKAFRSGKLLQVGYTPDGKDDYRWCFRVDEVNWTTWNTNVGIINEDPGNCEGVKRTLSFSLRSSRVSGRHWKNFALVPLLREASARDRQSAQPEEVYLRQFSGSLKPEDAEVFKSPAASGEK

| SMILES | Ki [nM] | other results |
| --- | --- | --- |
| Cc1ccc(C)c(-n2nc(C(F)(F)F)cc2CNC(=O)Nc2ccc(CO)c(F)c2)c1 [A74, 1-[[2-(2,5-Dimethyl-phenyl)-5-(trifluoromethyl)-2H-pyrazol-3-yl]-methyl]-3-[3-fluoro-4-(hydroxymethyl)-phenyl]-urea] | 44 | – |
| Cc1ccc(-n2nc(C(F)(F)F)cc2CNC(=O)Nc2ccc(CO)c(F)c2)cc1C [A75, 1-[[2-(3,4-Dimethyl-phenyl)-5-(trifluoromethyl)-2H-pyrazol-3-yl]-methyl]-3-[3-fluoro-4-(hydroxymethyl)-phenyl]-urea] | 19 | – |
| Cc1cccc(-n2nc(C(F)(F)F)cc2CNC(=O)Nc2ccc(CO)c(F)c2)c1F [A76, 1-[3-Fluoro-4-(hydroxymethyl)-phenyl]-3-[[2-(2-fluoro-3-methyl-phenyl)-5-(trifluoromethyl)-2H-pyrazol-3-yl]-methyl]-urea] | 41 | – |
| Cc1cc(F)cc(-n2nc(C(F)(F)F)cc2CNC(=O)Nc2ccc(CO)c(F)c2)c1 [A77, 1-[3-Fluoro-4-(hydroxymethyl)-phenyl]-3-[[2-(3-fluoro-5-methyl-phenyl)-5-(trifluoromethyl)-2H-pyrazol-3-yl]-methyl]-urea] | 19 | – |
| Cc1cc(-n2nc(C(F)(F)F)cc2CNC(=O)Nc2ccc(CO)c(F)c2)ccc1Cl [A78, 1-[[2-(4-Chloro-3-methyl-phenyl)-5-(trifluoromethyl)-2H-pyrazol-3-yl]-methyl]-3-[3-fluoro-4-(hydroxymethyl)-phenyl]-urea] | 11 | – |
| CCOc1ccc(-n2nc(C(F)(F)F)cc2CNC(=O)Nc2ccc(CO)c(F)c2)cc1C [A79, 1-[[2-(4-Ethoxy-3-methyl-phenyl)-5-(trifluoromethyl)-2H-pyrazol-3-yl]-methyl]-3-[3-fluoro-4-(hydroxymethyl)-phenyl]-urea] | 20 | – |
| Cc1cc(-n2nc(C(F)(F)F)cc2CNC(=O)Nc2ccc(CO)c(F)c2)ccc1F [A80, 1-[3-Fluoro-4-(hydroxymethyl)-phenyl]-3-[[2-(4-fluoro-3-methyl-phenyl)-5-(trifluoromethyl)-2H-pyrazol-3-yl]-methyl]-urea] | 7 | – |
| Cc1cc(-n2nc(C(F)(F)F)cc2CNC(=O)Nc2ccc(CO)c(F)c2)ccc1C#N [A81, 1-[[2-(4-Cyano-3-methyl-phenyl)-5-(trifluoromethyl)-2H-pyrazol-3-yl]-methyl]-3-[3-fluoro-4-(hydroxymethyl)-phenyl]-urea] | 21 | – |
| CC(C)c1cccc(-n2nc(C(F)(F)F)cc2CNC(=O)Nc2ccc(CO)c(F)c2)c1 [A82, 1-[3-Fluoro-4-(hydroxymethyl)-phenyl]-3-[[2-(3-isopropyl-phenyl)-5-(trifluoromethyl)-2H-pyrazol-3-yl]-methyl]-urea] | 2 | – |
| O=C(NCc1cc(C(F)(F)F)nn1-c1cccc(C(F)F)c1)Nc1ccc(CO)c(F)c1 [A83, 1-[[2-[3-(Difluoro-methyl)-phenyl]-5-(trifluoromethyl)-2H-pyrazol-3-yl]-methyl]-3-[3-fluoro-4-(hydroxymethyl)-phenyl]-urea] | 12 | – |
| COCc1cccc(-n2nc(C(F)(F)F)cc2CNC(=O)Nc2ccc(CO)c(F)c2)c1 [A84, 1-[3-Fluoro-4-(hydroxymethyl)-phenyl]-3-[[2-[3-(methoxymethyl)-phenyl]-5-(trifluoromethyl)-2H-pyrazol-3-yl]-methyl]-urea] | 53 | – |
| N#Cc1cccc(-n2nc(C(F)(F)F)cc2CNC(=O)Nc2ccc(CO)c(F)c2)c1 [A85, 1-[[2-(3-Cyano-phenyl)-5-(trifluoromethyl)-2H-pyrazol-3-yl]-methyl]-3-[3-fluoro-4-(hydroxymethyl)-phenyl]-urea] | – | inhibition at 5 µM (@ 5µM, human VR1 in CHO K1 cells, capsaicin, relative to maximum inhibition with 10 µM capsazepine, read-out: inhibition (as a percentage), printed in column (f) Ki (human being) [nM] Cap): 53% |
| CN(C)c1cccc(-n2nc(C(F)(F)F)cc2CNC(=O)Nc2ccc(CO)c(F)c2)c1 [A86, 1-[[2-(3-Dimethylamino-phenyl)-5-(trifluoromethyl)-2H-pyrazol-3-yl]-methyl]-3-[3-fluoro-4-(hydroxymethyl)-phenyl]-urea] | 25 | – |
| COc1ccc(-n2nc(C(F)(F)F)cc2CNC(=O)Nc2ccc(CO)c(F)c2)cc1C [A87, 1-[3-Fluoro-4-(hydroxymethyl)-phenyl]-3-[[2-(4-methoxy-3-methyl-phenyl)-5-(trifluoromethyl)-2H-pyrazol-3-yl]-methyl]-urea] | 63 | – |
| CCOc1ccc(C)cc1-n1nc(C(F)(F)F)cc1CNC(=O)Nc1ccc(CO)c(F)c1 [A88, 1-[[2-(2-Ethoxy-5-methyl-phenyl)-5-(trifluoromethyl)-2H-pyrazol-3-yl]-methyl]-3-[3-fluoro-4-(hydroxymethyl)-phenyl]-urea] | 86 | – |
| O=C(NCc1cc(C(F)(F)F)nn1-c1cccc(Cl)c1Cl)Nc1ccc(CO)c(F)c1 [A89, 1-[[2-(2,3-Dichloro-phenyl)-5-(trifluoromethyl)-2H-pyrazol-3-yl]-methyl]-3-[3-fluoro-4-(hydroxymethyl)-phenyl]-urea] | 45 | – |
| COc1c(Cl)cccc1-n1nc(C(F)(F)F)cc1CNC(=O)Nc1ccc(CO)c(F)c1 [A90, 1-[[2-(3-Chloro-2-methoxy-phenyl)-5-(trifluoromethyl)-2H-pyrazol-3-yl]-methyl]-3-[3-fluoro-4-(hydroxymethyl)-phenyl]-urea] | 27 | – |

| SMILES | Ki [nM] | other results |
| --- | --- | --- |
| COc1ccc(Cl)cc1-n1nc(C(F)(F)F)cc1CNC(=O)Nc1ccc(CO)c(F)c1 [A91, 1-[[2-(5-Chloro-2-methoxy-phenyl)-5-(trifluoromethyl)-2H-pyrazol-3-yl]-methyl]-3-[3-fluoro-4-(hydroxymethyl)-phenyl]-urea] | 51 | – |
| COc1cc(C)cc(-n2nc(C(F)(F)F)cc2CNC(=O)Nc2ccc(CO)c(F)c2)c1 [A92, 1-[3-Fluoro-4-(hydroxymethyl)-phenyl]-3-[[2-(3-methoxy-5-methyl-phenyl)-5-(trifluoromethyl)-2H-pyrazol-3-yl]-methyl]-urea] | 19 | – |
| CCOc1cc(C)cc(-n2nc(C(F)(F)F)cc2CNC(=O)Nc2ccc(CO)c(F)c2)c1 [A93, 1-[[2-(3-Ethoxy-5-methyl-phenyl)-5-(trifluoromethyl)-2H-pyrazol-3-yl]-methyl]-3-[3-fluoro-4-(hydroxymethyl)-phenyl]-urea] | 18 | – |
| COc1c(C)cccc1-n1nc(C(F)(F)F)cc1CNC(=O)Nc1ccc(CO)c(F)c1 [A94, 1-[3-Fluoro-4-(hydroxymethyl)-phenyl]-3-[[2-(2-methoxy-3-methyl-phenyl)-5-(trifluoromethyl)-2H-pyrazol-3-yl]-methyl]-urea] | 30 | – |
| COc1ccc(-n2nc(C(F)(F)F)cc2CNC(=O)Nc2ccc(CO)c(F)c2)cc1F [A95, 1-[3-Fluoro-4-(hydroxymethyl)-phenyl]-3-[[2-(3-fluoro-4-methoxy-phenyl)-5-(trifluoromethyl)-2H-pyrazol-3-yl]-methyl]-urea] | 13 | – |
| CC(C)(C)c1cc(CNC(=O)Nc2ccc(CO)c(Cl)c2)n(-c2cccc(Cl)c2)n1 [A96, 1-[[5-tert-Butyl-2-(3-chlorophenyl)-2H-pyrazol-3-yl]-methyl]-3-[3-chloro-4-(hydroxymethyl)-phenyl]-urea] | 2 | – |
| O=C(NCc1cc(C(F)(F)F)nn1-c1cccc(Cl)c1)Nc1ccc(CO)c(Cl)c1 [A97, 1-[3-Chloro-4-(hydroxymethyl)-phenyl]-3-[[2-(3-chlorophenyl)-5-(trifluoromethyl)-2H-pyrazol-3-yl]-methyl]-urea] | 11 | – |
| CC(O)c1ccc(C(C)C(=O)NCc2cc(C(C)(C)C)nn2-c2cccc(Cl)c2)cc1F (stereo not drawn) [A98, N-[[5-tert-Butyl-2-(3-chlorophenyl)-2H-pyrazol-3-yl]-methyl]-2-[3-fluoro-4-(1-hydroxy-ethyl)-phenyl]-propionamide] | – | (f) Ki (human being) [nM] Cap: agonist classification (human VR1 in CHO K1 cells, AG printed instead of a Ki): AG |
| CC(O)c1ccc(C(C)C(=O)NCc2cc(C(F)(F)F)nn2-c2cccc(Cl)c2)cc1F (stereo not drawn) [A99, N-[[2-(3-Chlorophenyl)-5-(trifluoromethyl)-2H-pyrazol-3-yl]-methyl]-2-[3-fluoro-4-(1-hydroxy-ethyl)-phenyl]-propionamide] | 6 | – |
| CC(C(=O)NCc1cc(C(C)(C)C)nn1-c1cccc(Cl)c1)c1ccc(C2(O)CC2)c(F)c1 (stereo not drawn) [A100, N-[[5-tert-Butyl-2-(3-chlorophenyl)-2H-pyrazol-3-yl]-methyl]-2-[3-fluoro-4-(1-hydroxy-cyclopropyl)-phenyl]-propionamide] | 0.7 | – |
| CC(C(=O)NCc1cc(C(F)(F)F)nn1-c1cccc(Cl)c1)c1ccc(C2(O)CC2)c(F)c1 (stereo not drawn) [A101, N-[[2-(3-Chlorophenyl)-5-(trifluoromethyl)-2H-pyrazol-3-yl]-methyl]-2-[3-fluoro-4-(1-hydroxy-cyclopropyl)-phenyl]-propionamide] | 4 | – |
| CC(C(=O)NCc1cc(C(F)(F)F)nn1-c1cccc(F)c1)c1ccc(C2(O)CC2)c(F)c1 (stereo not drawn) [A102, 2-[3-Fluoro-4-(1-hydroxy-cyclopropyl)-phenyl]-N-[[2-(3-fluorophenyl)-5-(trifluoromethyl)-2H-pyrazol-3-yl]-methyl]-propionamide] | 15 | – |
| COc1cccc(-n2nc(C(F)(F)F)cc2CNC(=O)C(C)c2ccc(C3(O)CC3)c(F)c2)c1 (stereo not drawn) [A103, 2-[3-Fluoro-4-(1-hydroxy-cyclopropyl)-phenyl]-N-[[2-(3-methoxyphenyl)-5-(trifluoromethyl)-2H-pyrazol-3-yl]-methyl]-propionamide] | 22 | – |
| CC(C(=O)NCc1cc(C(F)(F)F)nn1-c1ccc(F)c(F)c1)c1ccc(C2(O)CC2)c(F)c1 (stereo not drawn) [A104, N-[[2-(3,4-Difluoro-phenyl)-5-(trifluoromethyl)-2H-pyrazol-3-yl]-methyl]-2-[3-fluoro-4-(1-hydroxy-cyclopropyl)-phenyl]-propionamide] | 12 | – |
| CC(C)(C)c1cc(CNC(=O)Nc2ccc(C3(O)CC3)c(F)c2)n(-c2cccc(Cl)c2)n1 [A105, 1-[[5-tert-Butyl-2-(3-chlorophenyl)-2H-pyrazol-3-yl]-methyl]-3-[3-fluoro-4-(1-hydroxy-cyclopropyl)-phenyl]-urea] | 19 | – |
| O=C(NCc1cc(C(F)(F)F)nn1-c1cccc(Cl)c1)Nc1ccc(C2(O)CC2)c(F)c1 [A106, 1-[[2-(3-Chlorophenyl)-5-(trifluoromethyl)-2H-pyrazol-3-yl]-methyl]-3-[3-fluoro-4-(1-hydroxy-cyclopropyl)-phenyl]-urea] | 31 | – |
